Measured values from ChEMBL document CHEMBL1131390, “Inhibition of lipid peroxidation mediated by indolizines” (Bioorg Med Chem Lett, 1998).

Species: Rattus norvegicus
Test: Compound was tested in vitro for inhibitory activity against lipid peroxidation at concentration 100 uM
Assay type: functional, organism-based
Details: not given

| SMILES | inhibition [%] |
| --- | --- |
| CC(=O)Oc1c(-c2ccccc2)c(-c2ccccc2)n2ncc3ccccc3c12 | 28 |
| CCCCCCCCCCCCCCCC(=O)Oc1c(-c2ccccc2)c(-c2ccccc2)n2ccc(C=O)cc12 | 9 |

Species: Rattus norvegicus
Test: Compound was tested in vitro for inhibitory activity against lipid peroxidation after 30 minutes
Assay type: functional
Details: 0.5 h

| SMILES | IC50 [µM] |
| --- | --- |
| O=Cc1ccn2c(-c3ccccc3)c(-c3ccccc3)c(OC(=O)Nc3ccccc3)c2c1 | 3.2 |
| CC(=O)Oc1c(-c2ccccc2)c(-c2ccccc2)n2ccccc12 | 11.8 |
| CC(=O)Oc1c(-c2ccccc2)c(-c2ccccc2)n2cc(C(C)=O)ccc12 | 3.5 |
| CC(=O)Oc1c(-c2ccccc2)c(-c2ccccc2)n2ccc(C(C)=O)cc12 | 5.3 |
| CC(=O)Oc1c(-c2ccccc2)c(-c2ccccc2)n2ccc(C(=O)c3ccccc3)cc12 | 2.5 |
| CC(=O)Oc1c(-c2ccccc2)c(-c2ccccc2)n2ncccc12 | 3.1 |

Further lines, results first:

| IC50 [µM] | SMILES |
| --- | --- |
| 2.9 | CC(=O)Oc1c(-c2ccccc2)c(-c2ccccc2)n2ccc(C=O)cc12 |
| 4.2 | COc1c(-c2ccccc2)c(-c2ccccc2)n2ccc(C=O)cc12 |
| 2.6 | COC(=O)Oc1c(-c2ccccc2)c(-c2ccccc2)n2ccc(C=O)cc12 |
